Laboratory results taken from ChEMBL document CHEMBL1148814, “Novel class of quinone-bearing polyamines as multi-target-directed ligands to combat Alzheimer's disease” (J Med Chem, 2007).
pIC50: −log10 of the molar value. Active and inactive are the calls of the source. The calls are words filed in the database; no cut-off is given here.

How the values were obtained:
Cholinesterase = Cholinesterase (Homo sapiens, UniProt P06276)
Description: Inhibition of human recombinant butyrylcholinesterase

Acetylcholinesterase = Acetylcholinesterase (Homo sapiens, UniProt P22303)
Description: Inhibition of human recombinant acetylcholinesterase

SH-SY5Y [1] = test: Antioxidant activity in human SHSY5Y cells overexpressing NQO1 assessed as increase in tert-butyl hydroperoxide evoked-intracellular ROS formation at 3 uM after 24 hrs relative to control; assay type: functional
[2] = target: NAD(P)H dehydrogenase [quinone] 1 (Homo sapiens) (UniProt P15559); test: Activity of NQO1 enzyme
SH-SY5Y [3] = test: Antioxidant activity in human SHSY5Y cells overexpressing NQO1 assessed as increase in tert-butyl hydroperoxide evoked-intracellular ROS formation at 0.1 uM after 24 hrs relative to control; assay type: functional
SH-SY5Y [4] = test: Antioxidant activity in human SHSY5Y cells overexpressing NQO1 assessed as increase in tert-butyl hydroperoxide evoked-intracellular ROS formation at 0.3 uM after 24 hrs relative to control; assay type: functional
SH-SY5Y [5] = test: Antioxidant activity in human SHSY5Y cells overexpressing NQO1 assessed as increase in tert-butyl hydroperoxide evoked-intracellular ROS formation at 1 uM after 24 hrs relative to control; assay type: functional

Cholinesterase, sequence (P06276 whole entry): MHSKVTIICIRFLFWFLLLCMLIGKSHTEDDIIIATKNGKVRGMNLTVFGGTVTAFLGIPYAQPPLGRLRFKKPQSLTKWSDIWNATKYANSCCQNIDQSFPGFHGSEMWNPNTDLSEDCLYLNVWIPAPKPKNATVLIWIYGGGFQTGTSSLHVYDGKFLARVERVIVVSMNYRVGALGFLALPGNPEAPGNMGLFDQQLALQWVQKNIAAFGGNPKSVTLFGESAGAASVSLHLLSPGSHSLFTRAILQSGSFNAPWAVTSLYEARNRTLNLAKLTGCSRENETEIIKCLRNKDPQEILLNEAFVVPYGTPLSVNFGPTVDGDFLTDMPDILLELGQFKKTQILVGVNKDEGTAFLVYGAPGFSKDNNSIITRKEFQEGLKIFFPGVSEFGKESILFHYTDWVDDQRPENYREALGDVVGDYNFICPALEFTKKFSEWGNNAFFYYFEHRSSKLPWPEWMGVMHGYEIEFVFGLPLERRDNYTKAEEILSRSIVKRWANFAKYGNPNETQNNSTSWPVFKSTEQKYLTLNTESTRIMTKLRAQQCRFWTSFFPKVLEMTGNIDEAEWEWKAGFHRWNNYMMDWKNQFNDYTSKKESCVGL
Acetylcholinesterase, sequence (P22303 whole entry): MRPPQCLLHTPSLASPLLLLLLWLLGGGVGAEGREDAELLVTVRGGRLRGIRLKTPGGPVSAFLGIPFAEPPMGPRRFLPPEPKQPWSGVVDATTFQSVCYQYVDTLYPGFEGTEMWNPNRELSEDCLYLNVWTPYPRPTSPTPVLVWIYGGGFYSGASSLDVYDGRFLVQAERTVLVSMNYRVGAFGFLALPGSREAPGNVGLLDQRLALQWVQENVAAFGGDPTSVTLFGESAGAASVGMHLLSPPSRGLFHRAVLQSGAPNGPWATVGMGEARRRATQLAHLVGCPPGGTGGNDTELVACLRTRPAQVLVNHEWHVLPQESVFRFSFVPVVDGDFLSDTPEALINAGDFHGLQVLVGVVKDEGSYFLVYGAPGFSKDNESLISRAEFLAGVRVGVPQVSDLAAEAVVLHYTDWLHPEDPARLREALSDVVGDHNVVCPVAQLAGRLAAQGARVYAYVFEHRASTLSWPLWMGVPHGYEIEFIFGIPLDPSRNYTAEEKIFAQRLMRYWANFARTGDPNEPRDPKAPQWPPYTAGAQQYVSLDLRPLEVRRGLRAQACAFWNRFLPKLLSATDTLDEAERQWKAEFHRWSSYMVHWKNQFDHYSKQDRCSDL
NAD(P)H dehydrogenase [quinone] 1 (Homo sapiens), sequence (P15559 whole entry): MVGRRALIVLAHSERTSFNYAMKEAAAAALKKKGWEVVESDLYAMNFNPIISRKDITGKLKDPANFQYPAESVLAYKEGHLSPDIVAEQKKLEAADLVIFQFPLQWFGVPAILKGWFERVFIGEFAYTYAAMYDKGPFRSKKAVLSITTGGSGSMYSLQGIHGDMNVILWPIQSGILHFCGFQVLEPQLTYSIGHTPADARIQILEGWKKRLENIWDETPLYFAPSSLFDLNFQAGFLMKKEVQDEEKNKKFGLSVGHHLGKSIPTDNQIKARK

CCN(CCCCCCNC1=CC(=O)C(NCCCCCCN(CC)Cc2cccc(OC)c2)=CC1=O)Cc1cccc(OC)c1
pIC50 (Cholinesterase): 5.77

CCN(CCCCCCNC1=CC(=O)C(NCCCCCCN(CC)Cc2ccco2)=CC1=O)Cc1ccco1
pIC50 (Cholinesterase): 5.47

CCN(CCCCCNC1=CC(=O)C(NCCCCCN(CC)Cc2ccccc2OC)=CC1=O)Cc1ccccc1OC
pIC50 (Acetylcholinesterase): 8.63 | pIC50 (Cholinesterase): 5.46

CCN(CCCNC1=CC(=O)C(NCCCN(CC)Cc2ccccc2OC)=CC1=O)Cc1ccccc1OC
pIC50 (Cholinesterase): 5.01

CCN(CCCCCCNC1=CC(=O)C(NCCCCCCN(CC)Cc2ccccn2)=CC1=O)Cc1ccccn1
pIC50 (Acetylcholinesterase): 6.90 | pIC50 (Cholinesterase): 5.61

CCN(CCCCCCNC1=CC(=O)C(NCCCCCCN(CC)Cc2cccs2)=CC1=O)Cc1cccs1
pIC50 (Acetylcholinesterase): 7.22 | pIC50 (Cholinesterase): 5.55

COc1ccccc1CN(CCCCCCNC1=CC(=O)C(NCCCCCCN(Cc2ccccc2OC)C(C)C)=CC1=O)C(C)C
pIC50 (Acetylcholinesterase): 7.89 | pIC50 (Cholinesterase): 6.18

CCN(CCCCCCNC1=CC(=O)C(NCCCCCCN(CC)Cc2ccc(OC)cc2)=CC1=O)Cc1ccc(OC)cc1
pIC50 (Cholinesterase): 5.62

CCN(CCCCCCNC1=CC(=O)C(NCCCCCCN(CC)CCc2ccccc2OC)=CC1=O)CCc1ccccc1OC
pIC50 (Acetylcholinesterase): 7.76 | pIC50 (Cholinesterase): 6.29

CCN(CCCCCCNC1=C(c2ccccc2)C(=O)C(NCCCCCCN(CC)Cc2ccccc2OC)=C(c2ccccc2)C1=O)Cc1ccccc1OC
pIC50 (Acetylcholinesterase): 6.91 | pIC50 (Cholinesterase): 5.65

CCN(CCCCCCNC1=CC(=O)C(NCCCCCCN(CC)Cc2ccncc2)=CC1=O)Cc1ccncc1
pIC50 (Acetylcholinesterase): 6.72 | pIC50 (Cholinesterase): 4.15

CCN(CCCCCCNc1ccc(NCCCCCCN(CC)Cc2ccccc2OC)cc1)Cc1ccccc1OC
Activity (SH-SY5Y [1]): 49.54% | Activity [2]: inactive | Activity (SH-SY5Y [3]): 54.2% | Activity (SH-SY5Y [4]): 50.45% | Activity (SH-SY5Y [5]): 51.35% | pIC50 (Acetylcholinesterase): 7.37 | pIC50 (Cholinesterase): 6.30

CCN(Cc1ccccc1OC)C(=O)CCCCCNC1=CC(=O)C(NCCCCCC(=O)N(CC)Cc2ccccc2OC)=CC1=O
pIC50 (Acetylcholinesterase): 4.94 | pIC50 (Cholinesterase): 4.73

CCN(CCCCCCNC1=C(Br)C(=O)C(NCCCCCCN(CC)Cc2ccccc2OC)=C(Br)C1=O)Cc1ccccc1OC
Activity (SH-SY5Y [1]): 42.12% | Activity (SH-SY5Y [3]): 50.51% | Activity (SH-SY5Y [4]): 52.35% | Activity (SH-SY5Y [5]): 50.43% | pIC50 (Cholinesterase): 6.16

CCN(CCCCCCNC1=CC(=O)C(NCCCCCCN(CC)Cc2ccccc2C)=CC1=O)Cc1ccccc1C
pIC50 (Acetylcholinesterase): 7.14 | pIC50 (Cholinesterase): 5.68

CCN(CCCCCCNC1=C(Cl)C(=O)C(NCCCCCCN(CC)Cc2ccccc2OC)=C(Cl)C1=O)Cc1ccccc1OC
pIC50 (Acetylcholinesterase): 8.52 | pIC50 (Cholinesterase): 6.10

CCN(CCCCCCNC1=CC(=O)C(NCCCCCCN(CC)Cc2ccccc2OC)=CC1=O)Cc1ccccc1OC [MEMOQUIN]
Activity (SH-SY5Y [1]): 30.5% | Activity (SH-SY5Y [3]): 53% | Activity (SH-SY5Y [4]): 49.94% | Activity (SH-SY5Y [5]): 40.25%

CCN(CCCCNC1=CC(=O)C(NCCCCN(CC)Cc2ccccc2OC)=CC1=O)Cc1ccccc1OC
pIC50 (Acetylcholinesterase): 7.87 | pIC50 (Cholinesterase): 4.89

CCN(CCCCCCNC1=CC(=O)C(NCCCCCCN(CC)Cc2cccnc2)=CC1=O)Cc1cccnc1
pIC50 (Acetylcholinesterase): 6.88 | pIC50 (Cholinesterase): 4.92

CCN(CCCCCCNC1=CC(=O)C(NCCCCCCN(CC)Cc2ccccc2[N+](=O)[O-])=CC1=O)Cc1ccccc1[N+](=O)[O-]
pIC50 (Cholinesterase): 4.17
